Here are results for 15 molecules from PubChem BioAssay (NCI).

What all share (assay): NCI tumour cell line growth inhibition, 48 h
Assay [1] concerns 786-0 renal.
The subject of assay [2] is BT-549 breast.
For assay [3], the system named is CCRF-CEM leukemia.
In assay [4] the test system is UO-31 renal.
The test system of assay [5] is HT29 colon.
In assay [6] the test system is SK-MEL-2 melanoma.
The subject of assay [7] is RXF 393 renal.
In assay [8] the test system is HCC-2998 colon.
For assay [9], the system named is SF-295 CNS.
The subject of assay [10] is RPMI-8226 leukemia.

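96-well plates; 48 h exposure; 5 concentrations. Endpoints by linear interpolation between flanking doses. Not reached: highest tested concentration assigned. GI50 is the concentration that inhibits growth by half. TGI is the concentration that stops growth completely.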

Take `COc1ccc2c(c1)c(=O)oc1cc(OC/C(=N\O)c3ccc(F)cc3)ccc12`: the GI50 is 13.6 µM in [1]; 18.8 µM in [2]; 7.07 µM in assay [3]; 14.3 µM in assay [4]; 15.5 µM in [5]; 19.1 µM in [6]. For the same molecule, the GI50 is 21.8 µM in assay [7], 16.4 µM in [8], 20.2 µM in assay [9] and 16.7 µM in assay [10]. In addition, the TGI in assay [1] is 33.7 µM; in assay [2], 44.2 µM; in assay [3] it was greater than 100 µM; in [4], 28.9 µM; in [5] it was 36.6 µM; in assay [6] it was 47.4 µM. Further, the TGI in assay [7] was determined as 58.6 µM; in assay [8] it was 33.5 µM; in assay [9] it was 49.1 µM; in assay [10] it was 56.4 µM.

Consider `COc1ccc(/C=C/C(=O)c2ccc(NC(=O)CSc3nnc(-c4cc(OC)c(OC)c(OC)c4)o3)cc2)cc1`, for which the GI50 in [1] was 1.7 µM; in assay [2], 1.4 µM; in assay [3], 1.84 µM; in assay [4] it was 1.46 µM; in assay [5], 1.83 µM; in assay [6], 1.79 µM. Moreover, the GI50 in [7] was 1.74 µM; in assay [8] it was 1.88 µM; in [9] it was 1.77 µM; in [10], 1.73 µM. Besides, the TGI in assay [1] came to 3.36 µM; in assay [2], 2.81 µM; in assay [3], 4.56 µM; in [4], 2.97 µM; in assay [5], 3.62 µM; in assay [6] it was 4.82 µM. Besides, the TGI in assay [7] amounted to 3.54 µM; in assay [8], 3.65 µM; in assay [9] it was 3.35 µM; in assay [10], 4.31 µM.

As for `O=C(Nc1cccc(-n2cc(-c3ccncc3)c(-c3ccc(O)c(Cl)c3)n2)c1)Nc1ccc(Cl)c(C(F)(F)F)c1`, the GI50 in assay [1] is 2.08 µM; in assay [2] it was 1.82 µM; in assay [3], 1.77 µM; in assay [4], 2.65 µM; in assay [5] it was 3.39 µM; in assay [6], 2.14 µM. Also, the GI50 in assay [7] was 1.19 µM; in [8], 2.81 µM; in assay [9] it was 1.88 µM; in [10], 1.67 µM. The TGI in assay [1] came out at 8.18 µM; in [2], 4.28 µM; in [3], 6.31 µM; in [4], 7.24 µM; in [5], 11.3 µM; in [6] it was 4.28 µM. The TGI was 3.74 µM in assay [7], 6.98 µM in assay [8], 5.12 µM in [9] and 4.63 µM in [10].

Take `N=C1N=Nc2nc(C3(c4nc5n(c4O)C(=N)N=N5)Cc4ccccc4C3=O)c(O)n21` (centres undefined): the TGI in [1], in assay [2], in [3], in [4], in assay [5] and in assay [6] was greater than 100 µM in each case. Moreover, the TGI in assay [7], in [8], in assay [9] and in [10] was greater than 100 µM in each case. Further, the GI50 in assay [2] and in [6] was greater than 100 µM in each case.

`Cc1ccc(S(=O)(=O)C2=C3C(=C(c4ccccc4)c4ccccc43)CN(S(=O)(=O)c3ccc(C)cc3)C2)cc1`: the GI50 in assay [1] was 1.67 µM; in assay [2] it was 1.93 µM; in [3], 0.446 µM; in assay [4], 1.95 µM; in assay [5] it was 3.32 µM; in assay [6] it was 6.1 µM. Further, the GI50 in assay [7] is 4.01 µM; in assay [8] it was 22.5 µM; in assay [9], 9.97 µM; in assay [10], 1.41 µM. Moreover, the TGI in assay [1] was 3.22 µM; in [2], 4.65 µM; in [3], greater than 100 µM; in [4], 18.2 µM; in [5] it was 69.4 µM; in assay [6] it was 30.3 µM. Besides, the TGI is 16 µM in assay [7], greater than 100 µM in [8], 57 µM in assay [9] and 7.41 µM in assay [10].

Turning to `COc1ccc(C2SC(C)C(=O)N2NC(=O)C(O)c2ccccc2)cc1` (centres undefined), the GI50 in assay [1], in assay [2], in [3], in assay [4], in [5] and in assay [6] was greater than 100 µM in each case. The GI50 in assay [7], in assay [8], in assay [9] and in [10] was greater than 100 µM each time. Besides, the TGI in assay [1], in assay [2], in assay [3], in [4], in assay [5] and in assay [6] was greater than 100 µM in each case. Also, the TGI in [7], in [8], in [9] and in assay [10] was greater than 100 µM throughout.

As for `CCN1CCN(Cc2ccc3cc(C(=O)Nc4cc(NC(=O)c5ccc6c(c5)OCCO6)ccc4F)ccc3n2)CC1`, the GI50 in assay [1] was 0.0604 µM; in assay [2], 0.146 µM; in [3], 0.118 µM; in assay [4], 0.0376 µM; in assay [5], 0.0528 µM; in [6] it was 0.029 µM. The GI50 in assay [7] was 0.0142 µM; in assay [8] it was 0.0511 µM; in [9], 0.0475 µM; in [10], 0.0403 µM. The TGI in assay [1] was 13.1 µM; in assay [2] it was 7.82 µM; in [3], 2.54 µM; in assay [4], 1.13 µM; in assay [5], 11.9 µM; in assay [6] it was 0.118 µM. Moreover, the TGI in [7] came to 0.0729 µM; in assay [8], 5.73 µM; in assay [9], 2.92 µM; in assay [10], 0.325 µM.

For the molecule `Cc1cccc2c(=O)c3c(sc12)c(NCCN)nc1ccccc13`, the GI50 in [1] was 0.917 µM; in [2], 1.33 µM; in assay [3], 0.878 µM; in [4] it was 0.541 µM; in assay [5], 0.819 µM; in assay [6], 0.995 µM. For the same molecule, the GI50 in assay [7] was 1.03 µM; in assay [8], 0.798 µM; in [9], 0.886 µM; in [10] it was 0.851 µM. Also, the TGI was determined as 1.69 µM in assay [1]; 4.07 µM in assay [2]; 1.83 µM in assay [3]; 1.15 µM in [4]; 1.61 µM in assay [5]; 2.15 µM in [6]. Further, the TGI in [7] stood at 2.75 µM; in assay [8], 1.58 µM; in [9], 1.7 µM; in [10], 1.89 µM.

On to `CC(=O)O[C@@H]1CC(=O)O[C@@H]2C[C@@H](CC/C(Cl)=C/C/C=C\1C)O[C@@H]2CO`, for which the GI50 in assay [1] is greater than 25 µM; in assay [2], 24.5 µM; in [4], greater than 25 µM; in [5], greater than 25 µM; in [6], greater than 25 µM; in assay [7], greater than 25 µM. Also, the GI50 in assay [8] and in assay [10] was greater than 25 µM each time. For the same molecule, the TGI in assay [1], in assay [2], in assay [4], in assay [5], in [6] and in assay [7] was greater than 25 µM throughout. Besides, the TGI in [8], in assay [9] and in [10] was greater than 25 µM throughout.

In the case of `CCOC(=O)C1=C(N)Oc2cc(OC)ccc2C1c1ccc(F)c(F)c1` (centres undefined), the GI50 in assay [1] is 3.45 µM; in [2] it was 2.05 µM; in assay [3] it was 2.26 µM; in assay [4], 5.22 µM; in assay [5], 0.481 µM; in [6], 0.542 µM. The GI50 in [7] is 1.55 µM; in [8] it was 4.14 µM; in assay [9], 1.91 µM; in assay [10], 2.73 µM. The TGI is 16.8 µM in [1]; 16.3 µM in assay [2]; 19.7 µM in assay [3]; 19.7 µM in assay [4]; 11 µM in [5]; 15.8 µM in assay [6]. Further, the TGI stood at 8.76 µM in assay [7], 18.4 µM in assay [8], 15.5 µM in assay [9] and 18.2 µM in assay [10].

Regarding `COc1ccc2c(c1)CC[C@@H]1[C@@H]2CC[C@]2(C)c3c(cc(C(=O)c4ccccc4)c4sccc34)C[C@@H]12`, the GI50 in assay [1], in [2], in [3], in assay [4], in assay [5] and in [6] was greater than 100 µM each time. The GI50 in [7], in [8], in assay [9] and in [10] was greater than 100 µM in each case. The TGI in [1], in assay [2], in assay [3], in assay [4], in assay [5] and in assay [6] was greater than 100 µM throughout. Moreover, the TGI in [7], in [8], in assay [9] and in [10] was greater than 100 µM throughout.

With `NNc1nc(-c2ccccn2)nc2sc3c(c12)CCCCCC3`, the GI50 in assay [1] is 5.65 µM; in assay [2], 9.73 µM; in [3] it was 4.42 µM; in assay [4] it was 1.03 µM; in [5] it was 5.53 µM; in assay [6], 14.4 µM. Besides, the GI50 in [7] was 6.8 µM; in assay [8], 8.31 µM; in [10] it was 3.25 µM. Moreover, the TGI in [1] is 25.2 µM; in assay [2] it was greater than 100 µM; in assay [3] it was greater than 100 µM; in [4] it was 18.7 µM; in [5], greater than 100 µM; in assay [6] it was greater than 100 µM. Also, the TGI in assay [7] was 43 µM; in assay [8] it was greater than 100 µM; in assay [10] it was 24.5 µM.

For the molecule `Clc1cccc(Cc2cn3cc(-c4ccccc4)nc3s2)c1`, the GI50 is 26.7 µM in assay [1]; 28.8 µM in [2]; 43 µM in assay [3]; 7.47 µM in [4]; 11.8 µM in assay [5]; 3.28 µM in assay [6]. For the same molecule, the figures for the GI50 in assay [7], in assay [8] and in assay [10] were 15.1 µM, 2.39 µM and 7.4 µM, respectively. Besides, the TGI in assay [1] is greater than 100 µM; in [2], greater than 100 µM; in [3], greater than 100 µM; in [4], greater than 100 µM; in assay [5], greater than 100 µM; in assay [6] it was 34.4 µM. The TGI in [7] was 40.4 µM; in [8], greater than 100 µM; in assay [10] it was greater than 100 µM.

As for `C[C@H]1[C@H](C)CC[C@]2(C(=O)O)CC[C@]3(C)C(=CC[C@@H]4[C@@]5(C)CC[C@H](OC(=O)/C=C\c6ccc(O)cc6)C(C)(C)[C@@H]5CC[C@]43C)[C@H]12`, the GI50 in [1] was 3.22 µM; in assay [2] it was 9.58 µM; in assay [4] it was 13.6 µM; in assay [5], 4.87 µM; in assay [6], 28.9 µM; in assay [7], 1.52 µM. Further, the figures for the GI50 in [8], in assay [9] and in assay [10] were 2.92 µM, 3.03 µM and 1.8 µM, respectively. For the same molecule, the TGI in assay [1] is 16 µM; in [2], 31.2 µM; in assay [4], greater than 100 µM; in [5], 19.5 µM; in assay [6], greater than 100 µM; in assay [7] it was 6.94 µM. Moreover, the TGI came to 14.1 µM in assay [8], 31.2 µM in assay [9] and 10.3 µM in assay [10].

Turning to `Cn1cc(-c2nc(-c3cn(C)c4ncccc34)cs2)c2cc(F)ccc21`, the GI50 in assay [1] is 2.57 µM; in [2], 2.2 µM; in [3] it was 2.41 µM; in [6], 3.96 µM; in [7], 1.51 µM; in [8], 0.962 µM. Moreover, the GI50 is 0.709 µM in [9] and 3.65 µM in assay [10]. Also, the TGI in assay [1] is 12.8 µM; in assay [2], 37.6 µM; in assay [3] it was greater than 100 µM; in assay [6], 37.2 µM; in [7], 4.77 µM; in assay [8], 24.2 µM. The figures for the TGI in [9] and in assay [10] were 6.18 µM and greater than 100 µM, respectively.
